{"source": "patent US9326506B2", "about": "“Preparation method, agricultural composition and applications of natural brassinolide analogs” (CHENGDU NEWSUN CROPSCIENCE CO., LTD, priority 2012, dated 2016)", "tested_on": "rice", "experiment": "Low temperature assay on rice seedlings", "assay_type": "in vivo", "protocol": "According to a low temperature assay, we measured parameters including plant height, number of leaf, area of leaf, number of tiller, weight of root at low temperature to completely determine effects of the natural brassinolide analogues on the resistance to low temperature of a plant.\nThe natural brassinolide analogues, BR1, BR2, BR3, BR4, BR5 and BR6, used herein, were those prepared by the method of Example 1. Respectively the analogues were dissolved into 95% (V/V) ethanol solution, and then diluted with pure water to 1 mg/L, 0.1 mg/L, 0.01 mg/L, 0.001 mg/L and 0.0001 mg/L. In addition, pure water was used as a control.\nAfter rice seeds were disinfected by using 5% sodium hypochlorite solution treatment, they were rinsed with distilled water until their pH>7, placed into a petri dish in a dark incubator, and cultured by using water at 30° C.±2° C. for 9 days. Then respectively the nine-day-old etiolated seedlings of rice were immersed in the above solutions containing different concentrations of the natural brassinolide analogues or pure water, and cultured at the temperature of 1° C., 2° C., 3° C., 4° C. and 5° C. for 24 hr. The parameters including plant height, area of leaf and weight of root after 3, 6, 9 and 12 days and number of leaf and number of tiller after 12 days were measured."}
{"smiles": "CC[C@@H](C(C)C)[C@@H](O)[C@H](O)[C@@H](C)[C@H]1CCC2C3COC(=O)C4C[C@H](O)[C@H](O)C[C@]4(C)C3CC[C@@]21C", "note": "(stereo partly drawn) [BR2]", "values": [{"measurement": "Area of leaf", "setting": "0.0001 mg/l, 1 °C, 3 days", "result": 9.8, "unit": "cm^2"}, {"measurement": "Height", "setting": "0.0001 mg/l, 1 °C, 3 days", "result": 6.8, "unit": "cm"}, {"measurement": "Weight of root", "setting": "0.0001 mg/l, 1 °C, 3 days", "result": 2.8, "unit": "g"}, {"measurement": "Area of leaf", "setting": "0.0001 mg/l, 1 °C, 6 days", "result": 11.2, "unit": "cm^2"}, {"measurement": "Height", "setting": "0.0001 mg/l, 1 °C, 6 days", "result": 6.9, "unit": "cm"}, {"measurement": "Weight of root", "setting": "0.0001 mg/l, 1 °C, 6 days", "result": 3.1, "unit": "g"}, {"measurement": "Area of leaf", "setting": "0.0001 mg/l, 1 °C, 9 days", "result": 12.4, "unit": "cm^2"}, {"measurement": "Height", "setting": "0.0001 mg/l, 1 °C, 9 days", "result": 7, "unit": "cm"}, {"measurement": "Weight of root", "setting": "0.0001 mg/l, 1 °C, 9 days", "result": 3.4, "unit": "g"}, {"measurement": "Area of leaf", "setting": "0.0001 mg/l, 1 °C, 12 days", "result": 13.1, "unit": "cm^2"}, {"measurement": "Height", "setting": "0.0001 mg/l, 1 °C, 12 days", "result": 7.2, "unit": "cm"}, {"measurement": "Number of leaf", "setting": "0.0001 mg/l, 1 °C, 12 days", "result": 3}, {"measurement": "Number of tiller", "setting": "0.0001 mg/l, 1 °C, 12 days", "result": 3}, {"measurement": "Weight of root", "setting": "0.0001 mg/l, 1 °C, 12 days", "result": 3.9, "unit": "g"}, {"measurement": "Area of leaf", "setting": "0.0001 mg/l, 2 °C, 3 days", "result": 10, "unit": "cm^2"}, {"measurement": "Height", "setting": "0.0001 mg/l, 2 °C, 3 days", "result": 6.8, "unit": "cm"}, {"measurement": "Weight of root", "setting": "0.0001 mg/l, 2 °C, 3 days", "result": 2.8, "unit": "g"}, {"measurement": "Area of leaf", "setting": "0.0001 mg/l, 2 °C, 6 days", "result": 11.7, "unit": "cm^2"}, {"measurement": "Height", "setting": "0.0001 mg/l, 2 °C, 6 days", "result": 7, "unit": "cm"}, {"measurement": "Weight of root", "setting": "0.0001 mg/l, 2 °C, 6 days", "result": 3.0, "unit": "g"}, {"measurement": "Area of leaf", "setting": "0.0001 mg/l, 2 °C, 9 days", "result": 12.4, "unit": "cm^2"}, {"measurement": "Height", "setting": "0.0001 mg/l, 2 °C, 9 days", "result": 7.1, "unit": "cm"}, {"measurement": "Weight of root", "setting": "0.0001 mg/l, 2 °C, 9 days", "result": 3.2, "unit": "g"}, {"measurement": "Area of leaf", "setting": "0.0001 mg/l, 2 °C, 12 days", "result": 13, "unit": "cm^2"}, {"measurement": "Height", "setting": "0.0001 mg/l, 2 °C, 12 days", "result": 7.4, "unit": "cm"}, {"measurement": "Number of leaf", "setting": "0.0001 mg/l, 2 °C, 12 days", "result": 3}, {"measurement": "Number of tiller", "setting": "0.0001 mg/l, 2 °C, 12 days", "result": 3}, {"measurement": "Weight of root", "setting": "0.0001 mg/l, 2 °C, 12 days", "result": 3.9, "unit": "g"}, {"measurement": "Area of leaf", "setting": "0.0001 mg/l, 3 °C, 3 days", "result": 10, "unit": "cm^2"}, {"measurement": "Height", "setting": "0.0001 mg/l, 3 °C, 3 days", "result": 6.9, "unit": "cm"}, {"measurement": "Weight of root", "setting": "0.0001 mg/l, 3 °C, 3 days", "result": 2.5, "unit": "g"}, {"measurement": "Area of leaf", "setting": "0.0001 mg/l, 3 °C, 6 days", "result": 11.8, "unit": "cm^2"}, {"measurement": "Height", "setting": "0.0001 mg/l, 3 °C, 6 days", "result": 7.2, "unit": "cm"}, {"measurement": "Weight of root", "setting": "0.0001 mg/l, 3 °C, 6 days", "result": 2.6, "unit": "g"}, {"measurement": "Area of leaf", "setting": "0.0001 mg/l, 3 °C, 9 days", "result": 12.3, "unit": "cm^2"}, {"measurement": "Height", "setting": "0.0001 mg/l, 3 °C, 9 days", "result": 7.4, "unit": "cm"}, {"measurement": "Weight of root", "setting": "0.0001 mg/l, 3 °C, 9 days", "result": 2.9, "unit": "g"}, {"measurement": "Area of leaf", "setting": "0.0001 mg/l, 3 °C, 12 days", "result": 13.2, "unit": "cm^2"}, {"measurement": "Height", "setting": "0.0001 mg/l, 3 °C, 12 days", "result": 7.5, "unit": "cm"}, {"measurement": "Number of leaf", "setting": "0.0001 mg/l, 3 °C, 12 days", "result": 3}, {"measurement": "Number of tiller", "setting": "0.0001 mg/l, 3 °C, 12 days", "result": 2}, {"measurement": "Weight of root", "setting": "0.0001 mg/l, 3 °C, 12 days", "result": 2.9, "unit": "g"}, {"measurement": "Area of leaf", "setting": "0.0001 mg/l, 4 °C, 3 days", "result": 10, "unit": "cm^2"}, {"measurement": "Height", "setting": "0.0001 mg/l, 4 °C, 3 days", "result": 6.9, "unit": "cm"}, {"measurement": "Weight of root", "setting": "0.0001 mg/l, 4 °C, 3 days", "result": 2.5, "unit": "g"}, {"measurement": "Area of leaf", "setting": "0.0001 mg/l, 4 °C, 6 days", "result": 11.7, "unit": "cm^2"}, {"measurement": "Height", "setting": "0.0001 mg/l, 4 °C, 6 days", "result": 7.3, "unit": "cm"}, {"measurement": "Weight of root", "setting": "0.0001 mg/l, 4 °C, 6 days", "result": 2.6, "unit": "g"}, {"measurement": "Area of leaf", "setting": "0.0001 mg/l, 4 °C, 9 days", "result": 13, "unit": "cm^2"}, {"measurement": "Height", "setting": "0.0001 mg/l, 4 °C, 9 days", "result": 7.5, "unit": "cm"}, {"measurement": "Weight of root", "setting": "0.0001 mg/l, 4 °C, 9 days", "result": 2.9, "unit": "g"}, {"measurement": "Area of leaf", "setting": "0.0001 mg/l, 4 °C, 12 days", "result": 13.4, "unit": "cm^2"}, {"measurement": "Height", "setting": "0.0001 mg/l, 4 °C, 12 days", "result": 7.6, "unit": "cm"}, {"measurement": "Number of leaf", "setting": "0.0001 mg/l, 4 °C, 12 days", "result": 3}, {"measurement": "Number of tiller", "setting": "0.0001 mg/l, 4 °C, 12 days", "result": 2}, {"measurement": "Weight of root", "setting": "0.0001 mg/l, 4 °C, 12 days", "result": 2.9, "unit": "g"}, {"measurement": "Area of leaf", "setting": "0.0001 mg/l, 5 °C, 3 days", "result": 10.2, "unit": "cm^2"}, {"measurement": "Height", "setting": "0.0001 mg/l, 5 °C, 3 days", "result": 7.0, "unit": "cm"}, {"measurement": "Weight of root", "setting": "0.0001 mg/l, 5 °C, 3 days", "result": 2.5, "unit": "g"}, {"measurement": "Area of leaf", "setting": "0.0001 mg/l, 5 °C, 6 days", "result": 12, "unit": "cm^2"}, {"measurement": "Height", "setting": "0.0001 mg/l, 5 °C, 6 days", "result": 7.4, "unit": "cm"}, {"measurement": "Weight of root", "setting": "0.0001 mg/l, 5 °C, 6 days", "result": 2.7, "unit": "g"}, {"measurement": "Area of leaf", "setting": "0.0001 mg/l, 5 °C, 9 days", "result": 13.6, "unit": "cm^2"}, {"measurement": "Height", "setting": "0.0001 mg/l, 5 °C, 9 days", "result": 7.5, "unit": "cm"}, {"measurement": "Weight of root", "setting": "0.0001 mg/l, 5 °C, 9 days", "result": 2.9, "unit": "g"}, {"measurement": "Area of leaf", "setting": "0.0001 mg/l, 5 °C, 12 days", "result": 14, "unit": "cm^2"}, {"measurement": "Height", "setting": "0.0001 mg/l, 5 °C, 12 days", "result": 7.7, "unit": "cm"}, {"measurement": "Number of leaf", "setting": "0.0001 mg/l, 5 °C, 12 days", "result": 3}, {"measurement": "Number of tiller", "setting": "0.0001 mg/l, 5 °C, 12 days", "result": 2}, {"measurement": "Weight of root", "setting": "0.0001 mg/l, 5 °C, 12 days", "result": 3.0, "unit": "g"}, {"measurement": "Area of leaf", "setting": "0.001 mg/l, 1 °C, 3 days", "result": 10.1, "unit": "cm^2"}, {"measurement": "Height", "setting": "0.001 mg/l, 1 °C, 3 days", "result": 6.9, "unit": "cm"}, {"measurement": "Weight of root", "setting": "0.001 mg/l, 1 °C, 3 days", "result": 2.8, "unit": "g"}, {"measurement": "Area of leaf", "setting": "0.001 mg/l, 1 °C, 6 days", "result": 11.3, "unit": "cm^2"}, {"measurement": "Height", "setting": "0.001 mg/l, 1 °C, 6 days", "result": 7.1, "unit": "cm"}, {"measurement": "Weight of root", "setting": "0.001 mg/l, 1 °C, 6 days", "result": 3.1, "unit": "g"}, {"measurement": "Area of leaf", "setting": "0.001 mg/l, 1 °C, 9 days", "result": 12.6, "unit": "cm^2"}, {"measurement": "Height", "setting": "0.001 mg/l, 1 °C, 9 days", "result": 7.1, "unit": "cm"}, {"measurement": "Weight of root", "setting": "0.001 mg/l, 1 °C, 9 days", "result": 3.4, "unit": "g"}, {"measurement": "Area of leaf", "setting": "0.001 mg/l, 1 °C, 12 days", "result": 13, "unit": "cm^2"}, {"measurement": "Height", "setting": "0.001 mg/l, 1 °C, 12 days", "result": 7.3, "unit": "cm"}, {"measurement": "Number of leaf", "setting": "0.001 mg/l, 1 °C, 12 days", "result": 3}, {"measurement": "Number of tiller", "setting": "0.001 mg/l, 1 °C, 12 days", "result": 3}, {"measurement": "Weight of root", "setting": "0.001 mg/l, 1 °C, 12 days", "result": 3.9, "unit": "g"}, {"measurement": "Area of leaf", "setting": "0.001 mg/l, 2 °C, 3 days", "result": 9.8, "unit": "cm^2"}, {"measurement": "Height", "setting": "0.001 mg/l, 2 °C, 3 days", "result": 6.9, "unit": "cm"}, {"measurement": "Weight of root", "setting": "0.001 mg/l, 2 °C, 3 days", "result": 2.8, "unit": "g"}]}
